PubChem BioAssay (NCI)
Values joined by “and” are separate entries in the source; they are usually repeats but may differ in a detail not shown here. Identical values can stand only once.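 Where inhibition never reached the appropriate level, the endpoint shown equals the highest concentration tested. Otherwise, values were interpolated linearly from a five-concentration, 48-hour dose response in 96-well plates. GI50: concentration for 50% inhibition of growth. TGI: total growth inhibition.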

Key:
Assay in all cases: NCI-60 cell line screen, 48 h
HCC-2998 colon = test system: HCC-2998 colon
HCT-116 colon = test system: HCT-116 colon
M14 melanoma = test system: M14 melanoma
SR leukemia = test system: SR leukemia
HT29 colon = test system: HT29 colon
HOP-62 NSCLC = test system: HOP-62 NSCLC

Structure (SMILES)	GI50 (HCC-2998 colon)	TGI (HCC-2998 colon)	GI50 (HCT-116 colon)	TGI (HCT-116 colon)	GI50 (M14 melanoma)	TGI (M14 melanoma)	GI50 (SR leukemia)	TGI (SR leukemia)	GI50 (HT29 colon)	TGI (HT29 colon)	GI50 (HOP-62 NSCLC)	TGI (HOP-62 NSCLC)
COC(=O)/C(=C\c1c(C)[nH]c2ccccc12)S(=O)(=O)c1ccccc1	4.89 µM	17.4 µM	3.8 µM	17.3 µM	4.4 µM	20 µM	1.05 µM	> 100 µM	5.23 µM	> 100 µM	7.69 µM	29.4 µM
Cc1ccc2c(=O)c3cccc(CC(=O)O)c3oc2c1C	> 100 µM	> 100 µM	> 100 µM	> 100 µM	> 100 µM	> 100 µM	> 100 µM	> 100 µM	> 100 µM	> 100 µM	> 100 µM	> 100 µM
C[C@]12CC[C@@H]3c4ccc(O)cc4CC[C@H]3[C@@H]1CC[C@@H]2NS(=O)(=O)Cc1ccc(Cl)cc1	2.99 µM	8.14 µM	1.92 µM	3.97 µM	2.49 µM	6.25 µM	3.69 µM	> 100 µM	3.34 µM	10.8 µM	2.97 µM	8.14 µM
CCSc1nc(N=Cc2cccs2)c2cn[nH]c2n1	2.87 µM	11.3 µM	6.49 µM	> 100 µM	14.8 µM	28 µM	2.1 µM	7.21 µM	16.7 µM	80.9 µM	53.8 µM	> 100 µM
S=C(N/N=C/c1ccccn1)Nc1ccccn1	2.19 µM	> 100 µM	0.371 µM	> 100 µM			0.52 µM	> 100 µM	3.1 µM	> 100 µM	1.73 µM	9.22 µM
O=C(C(Br)Br)C(Br)C(Br)c1ccccc1 (centres undefined)	16.2 µM	33 µM	1.83 µM	3.42 µM	2.5 µM	6.33 µM	1.61 µM	3.68 µM	2.5 µM	5.39 µM	2.74 µM	8.1 µM
COc1nc(C)cc2c(=O)n(-c3ccccc3)n(CCCN3CCN(c4ccc(Cl)cc4)CC3)c(=O)c12	> 50 µM	> 50 µM	27.5 µM	> 50 µM	46.6 µM	> 50 µM	> 50 µM	> 50 µM	> 50 µM	> 50 µM	24.5 µM	> 50 µM
O=C1c2ccccc2-c2c1c1ccccc1c(=O)n2CCNCCNCCn1c2c(c3ccccc3c1=O)C(=O)c1ccccc1-2	0.279 µM	14.9 µM	0.0159 µM	1.42 µM	2.58 µM	33.4 µM			0.017 µM	> 100 µM	0.0288 µM	4.5 µM
CNC(=O)c1cccc(-c2ccc3c(N4CCOC[C@@H]4C)nc(N4CCOC[C@@H]4C)nc3n2)c1	0.221 µM and 0.43 µM and 0.182 µM	> 100 µM and > 10 µM and 36.6 µM	0.303 µM and 0.451 µM and 0.407 µM	> 100 µM	0.047 µM and 0.177 µM and 0.133 µM	44.5 µM and > 6.82 µM and 14.9 µM	0.249 µM and 0.133 µM and 0.104 µM	> 100 µM	0.144 µM and 0.355 µM and 0.323 µM	> 100 µM	0.153 µM and 0.273 µM and 0.17 µM	> 100 µM and > 5.18 µM and 10.2 µM
